Measured values published in PubChem BioAssay (NCI).
“And” between values parts separate entries of the source, which are not always exact repeats. Equal values may be shown once.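 Assay format: 96-well plates, 48-hour exposure. At the GI50, growth is halved. TGI: total growth inhibition.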 Where a SMILES comes first, the peptide text is derived from it. [ ]: non-standard residue; d: D form. The star is where a group is joined. Bn2Val = CC(C)[C@@H](C(=O)*)N(Cc1ccccc1)Cc1ccccc1; NH(3,4-diMeO-benzyl) = COc1ccc(CN*)cc1OC; NMeV = CN[C@H](C(=O)O)C(C)C; dNMeA = CN[C@H](C)C(=O)O

What was measured:
Assay in all cases: NCI-60 cell line screen, 48 h
[1] = tested on: MALME-3M melanoma
[2] = tested on: T-47D breast
[3] = tested on: NCI-H522 lung
[4] = tested on: SF-295 CNS
[5] = tested on: K-562 leukemia
[6] = tested on: KM12 colon
[7] = tested on: HCT-15 colon
[8] = tested on: M14 melanoma
[9] = tested on: OVCAR-8 ovarian
[10] = tested on: SK-OV-3 ovarian

Structure (SMILES) | GI50 [1] [µM] | TGI [1] | GI50 [2] [µM] | TGI [2] | GI50 [3] [µM] | TGI [3] | GI50 [4] [µM] | TGI [4] | GI50 [5] [µM] | TGI [5] | GI50 [6] [µM] | TGI [6] | GI50 [7] [µM] | TGI [7] | GI50 [8] [µM] | TGI [8] | GI50 [9] [µM] | TGI [9] | GI50 [10] [µM] | TGI [10]
Cc1c(Cl)cccc1Nc1ncccc1C(=O)O | 73.4 | > 100 µM | 68 | > 100 µM | 81.2 | > 100 µM | 16.7 | 76.7 µM | 62.7 | > 100 µM | > 100 | > 100 µM | 38.1 | > 100 µM | > 100 | > 100 µM | > 100 | > 100 µM | > 100 | > 100 µM
N#Cc1cnn2ccn(C3OC(COC(=O)c4ccccc4)C(OC(=O)c4ccccc4)C3OC(=O)c3ccccc3)c12 (stereo not drawn) | – | > 21.5 µM | – | 21.5 µM | – | > 21.5 µM | – | > 21.5 µM | – | > 21.5 µM | – | 21.5 µM | – | > 21.5 µM | – | > 21.5 µM | – | > 46.4 µM | – | > 21.5 µM
O=C1CSC(N2CCN(c3cccc(Cl)c3)CC2)=N1 | > 100 | > 100 µM | > 100 | > 100 µM | > 100 | > 100 µM | > 100 | > 100 µM | > 100 | > 100 µM | > 100 | > 100 µM | > 100 | > 100 µM | > 100 | > 100 µM | > 100 | > 100 µM | > 100 | > 100 µM
CC1=C(CCCOC(=O)NCCCl)C2=C(C)C3(CC3)[C@@](C)(O)C(=O)C2=C1 | 1.85 | 4.22 µM | 3.36 | > 100 µM | 3.99 | 21.4 µM | 2.53 | 7.33 µM | 23 | > 100 µM | 10.5 | 88.2 µM | 2.84 | > 100 µM | 2.46 | 8.58 µM | 3.4 | > 100 µM | 2.35 | 6.46 µM
COc1cc2c(NCCCCCCO[N+](=O)[O-])ncnc2c(OC)c1OC | – | 31.9 µM | – | > 93.2 µM | – | 52.9 µM | – | 58.8 µM | – | > 100 µM | – | 33.5 µM | – | 72.7 µM | – | 36.8 µM | – | 64.4 µM | – | > 100 µM
O=[n+]1c(CBr)c(CBr)n([O-])c2ccccc21 | 1.47 | 3.15 µM | 2.58 | 6.8 µM | 1.74 | 3.17 µM | 17.2 | 36 µM | 3.46 | 17.2 µM | 17.1 | 31.5 µM | 1.82 | 3.48 µM | 4.65 | 17.6 µM | 15.2 | 31 µM | 24.9 | > 100 µM
CCOc1ccc2nc(NC(=O)/C(CC(=O)CC(C3=C(O)c4ccccc4CC3=O)c3ccccc3)=N\O)sc2c1 (stereo not drawn) | – | > 100 µM | – | > 100 µM | – | > 100 µM | – | > 100 µM | – | > 100 µM | – | > 100 µM | – | > 100 µM | – | > 100 µM | – | > 100 µM | – | > 100 µM
COc1cc2c(c(O)c1C)C(=O)C(Cl)=CC2=O | – | 12.5 µM | – | 5.22 µM | – | 5.24 µM | – | 34.4 µM | – | 8.64 µM | – | 42.1 µM | – | 27.6 µM | – | 16.5 µM | – | 45 µM | – | > 65.6 µM
CC[n+]1ccc2c(c1)C(=O)c1nccc3c1c-2nc1ccccc13 | 0.762 | 2.03 µM | 2.2 | 9.19 µM | 0.538 | 1.45 µM | 0.634 | 3.76 µM | 3 | 22.2 µM | 2.41 | 15.2 µM | 2.86 | > 33.3 µM | 0.943 | 4.38 µM | 1.04 | 6.47 µM | 0.799 | 4.83 µM
CCCNC(=O)OCc1c(COC(=O)NCCC)c(-c2ccc(Cl)c(Cl)c2)n2c1CCC2 | – | 9.72 µM | – | > 100 µM | – | 4.32 µM | – | 12.3 µM | – | 26.6 µM | – | 28.5 µM | – | 19.8 µM | – | 24.4 µM | – | 16.9 µM | – | 10.5 µM
O=C1c2ccccc2C(=O)c2c1ccc1[nH]c(CCl)nc21 | 2.82 | 10.9 µM | 1.96 | 4.37 µM | 1.63 | 3.53 µM | 7.99 | 20.6 µM | 2.98 | 17 µM | 3.14 | 10.8 µM | 1.45 | 3.1 µM | 9.97 | 22.8 µM | 3.68 | 15.7 µM | 3.67 | 9.08 µM
CC1(C)N=C(N)N=C(N)N1c1ccc(CCCCc2ccc(S(=O)(=O)F)cc2Cl)c(Cl)c1 | – | 33.8 µM | – | 34.8 µM | – | 31.4 µM | – | 192 µM | – | 64.3 µM | – | 9.77 µM | – | 193 µM | – | > 382 µM | – | 261 µM | – | 351 µM
COc1ccc(CNC(=O)[C@@H](C)N(C)C(=O)[C@@H]2CCCN2C(=O)[C@H](C(C)C)N(C)C(=O)[C@@H](NC(=O)[C@H](C(C)C)N(Cc2ccccc2)Cc2ccccc2)C(C)C)cc1OC (Bn2Val-V[NMeV]P[dNMeA]-{NH(3,4-diMeO-benzyl)}) | 14.8 | 15.6 µM and 31.9 µM | – | 50 µM and 81.1 µM | 9.05 | 10.7 µM and 45.1 µM | 9.29 | 13.8 µM and 23 µM | 6.52 | 50 µM and > 100 µM | – | 30 µM and 27.4 µM | 5.98 | 21.5 µM and 28.8 µM | 63.2 | 16.9 µM and > 100 µM | 16.3 | 50 µM and > 100 µM | 23.6 | 36.3 µM and 96.7 µM
S=C1NCCN1C1=Nc2ccccc2CO1 | > 100 | > 100 µM | 73.5 | > 100 µM | > 100 | > 100 µM | > 100 | > 100 µM | > 100 | > 100 µM | > 100 | > 100 µM | > 100 | > 100 µM | > 100 | > 100 µM | > 100 | > 100 µM | > 100 | > 100 µM
